In patent US10670605B2, “Cysteine reactive probes and uses thereof” (The Scripps Research Institute, priority 2015, dated 2020):

What was measured:
GNB2L1 C182 (P63244) = GNB2L1 C182 (P63244) (Homo sapiens, UniProt P63244); assay: Competitive isoTOP-ABPP, cell lysates; format: binding; settings: 500 μm, in-vitro_ramos_231;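 further: Heavy/light ratio DMSO over fragment-treated so higher means more cysteine engagement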
Procedure: (§1) TEV digests were pressure loaded onto a 250 μm (inner diameter) fused silica capillary column packed with C18 resin (Aqua 5 μm, Phenomenex). The samples were analyzed by multidimensional liquid chromatography tandem mass spectrometry (MudPIT), using an LTQ-Velos Orbitrap mass spectrometer (Thermo Scientific) coupled to an Agilent 1200-series quaternary pump. The peptides were eluted onto a biphasic column with a 5 μm tip (100 μm fused silica, packed with C18 (10 cm) and bulk strong cation exchange resin (3 cm, SCX, Phenomenex,)) in a 5-step MudPIT experiment, using 0%, 30%, 60%, 90%, and 100% salt bumps of 500 mM aqueous ammonium acetate and using a gradient of 5-100% buffer B in buffer A (buffer A: 95% water, 5% acetonitrile, 0.1% formic acid; buffer B: 5% water, 95% acetonitrile, 0.1% formic acid) as has been described in Weerapana et al. Nat Protoc 2:1414-1425 (2007). Data was collected in data-dependent acquisition mode with dynamic exclusion enabled (20 s, repeat of 2). One full MS (MS1) scan (400-1800 m/z) was followed by 30 MS2 scans (ITMS) of the nth most abundant ions.
(§2) The ratios of heavy/light for each unique peptide (DMSO/compound treated; isoTOP-ABPP ratios, R values) were quantified with in-house CIMAGE software, using default parameters (3 ms s per peak and signal to noise threshold 2.5). Site-specific engagement of electrophilic fragments was assessed by blockade of IA-alkyne probe labeling. […] Ratios for unique peptide entries were calculated for each experiment; overlapping peptides with the same modified cysteine (e.g. different charge states, MudPIT chromatographic steps or tryptic termini) were grouped together and the median ratio was reported as the final ratio (R). The peptide ratios reported by CIMAGE were further filtered to ensure the removal or correction of low quality ratios in each individual dataset. The quality filters applied were the following: removal of half tryptic peptides; for ratios with high standard deviations from the median (90% of the median or above) the lowest ratio was taken instead of the median; removal of peptides with R=20 and only a single ms2 event triggered during the elution of the parent ion; manual annotation of all the peptides with ratios of 20, removing any peptides with low-quality elution profiles that remained after the previous curation steps. Proteome reactivity values for individual fragments were computed as the percentage of the total quantified cysteine-containing peptides with R values≥4 (defined as liganded cysteines) for each replicate experiment and the final proteome reactivity value was calculated as the mean for all replicate experiments for each fragment from both MDA-MB-231 and Ramos cellular proteomes.
(§3) Biological replicates of the same compound and cell-line were averaged if the standard deviation was below 60% of the mean; otherwise the lowest value of the ratio set was taken.

GSTP1 C48 (P09211) = GSTP1 C48 (P09211) (Homo sapiens, UniProt P09211); assay: Competitive isoTOP-ABPP, cell lysates; format: binding; settings: 500 μm, in-vitro_ramos_231;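 further: Heavy/light ratio DMSO over fragment-treated so higher means more cysteine engagement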
Procedure: as §1, §2, §3

MLTK C22 (Q9NYL2) = MLTK C22 (Q9NYL2) (Homo sapiens, UniProt Q9NYL2); assay: Competitive isoTOP-ABPP, cell lysates; format: binding; settings: 500 μm, in-vitro_ramos_231
Procedure: as §1, §2, §3

PDIA6 C55 (Q15084) = target: T1, PDIA6 C55 (Q15084) (Homo sapiens, UniProt Q15084); assay: Competitive isoTOP-ABPP, cell lysates; format: binding; settings: 500 μm, in-vitro_ramos_231
T1 sequence (Q15084 20-440): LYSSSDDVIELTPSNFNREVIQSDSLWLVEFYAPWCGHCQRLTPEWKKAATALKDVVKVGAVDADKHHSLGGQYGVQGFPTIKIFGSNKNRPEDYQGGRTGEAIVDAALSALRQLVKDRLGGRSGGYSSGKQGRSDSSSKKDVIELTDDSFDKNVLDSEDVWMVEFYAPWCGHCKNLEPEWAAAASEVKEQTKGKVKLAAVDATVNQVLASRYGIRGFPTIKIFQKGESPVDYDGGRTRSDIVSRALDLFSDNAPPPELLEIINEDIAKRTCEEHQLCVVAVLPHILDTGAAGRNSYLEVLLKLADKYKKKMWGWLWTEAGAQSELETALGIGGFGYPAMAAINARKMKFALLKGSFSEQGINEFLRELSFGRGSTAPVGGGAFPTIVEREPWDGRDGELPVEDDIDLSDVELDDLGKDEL
Procedure: as §1, §2, §3

PRMT1 C109 (Q99873) = PRMT1 C109 (Q99873) (Homo sapiens, UniProt Q99873); assay: Competitive isoTOP-ABPP, cell lysates; format: binding; settings: 500 μm, in-vitro_ramos_231;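 further: Heavy/light ratio DMSO over fragment-treated so higher means more cysteine engagement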
Procedure: as §1, §2, §3

UBE2L3 C86 (P68036) = UBE2L3 C86 (P68036) (Homo sapiens, UniProt P68036); assay: Competitive isoTOP-ABPP, cell lysates; format: binding; settings: 500 μm, in-vitro_ramos_231;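 further: Heavy/light ratio DMSO over fragment-treated so higher means more cysteine engagement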
Procedure: as §1, §2, §3

XPO1 C34 (O14980) = XPO1 C34 (O14980) (Homo sapiens, UniProt O14980); assay: Competitive isoTOP-ABPP, cell lysates; format: binding; settings: 500 μm, in-vitro_ramos_231
Procedure: as §1, §2, §3

ACAT1 C119 (P24752) = target: T2, ACAT1 C119 (P24752) (Homo sapiens, UniProt P24752); assay: Competitive isoTOP-ABPP, cell lysates; format: binding; settings: 500 μm, in-vitro_ramos_231
T2 sequence (P24752 34-427): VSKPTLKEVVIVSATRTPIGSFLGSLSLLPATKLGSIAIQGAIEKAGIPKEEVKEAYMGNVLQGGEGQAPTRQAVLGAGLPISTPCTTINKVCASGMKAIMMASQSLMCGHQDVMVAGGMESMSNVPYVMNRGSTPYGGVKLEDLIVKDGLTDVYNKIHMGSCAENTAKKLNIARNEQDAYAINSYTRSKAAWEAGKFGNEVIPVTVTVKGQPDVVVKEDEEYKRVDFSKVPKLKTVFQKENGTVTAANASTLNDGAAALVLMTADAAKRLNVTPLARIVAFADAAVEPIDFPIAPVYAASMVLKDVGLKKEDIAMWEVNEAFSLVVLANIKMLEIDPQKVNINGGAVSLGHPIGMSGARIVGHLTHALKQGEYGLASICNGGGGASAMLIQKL

ACAT1 C196 (P24752) = target: T3, ACAT1 C196 (P24752) (Homo sapiens, UniProt P24752); assay: Competitive isoTOP-ABPP, cell lysates; format: binding; settings: 500 μm, in-vitro_ramos_231
T3 sequence (P24752 34-427): T2 sequence (P24752 34-427)

ACAT1 C413 (P24752) = target: T4, ACAT1 C413 (P24752) (Homo sapiens, UniProt P24752); assay: Competitive isoTOP-ABPP, cell lysates; format: binding; settings: 500 μm, in-vitro_ramos_231
T4 sequence (P24752 34-427): T2 sequence (P24752 34-427)

ACAT1 C126 (P24752) = target: T5, ACAT1 C126 (P24752) (Homo sapiens, UniProt P24752); assay: Competitive isoTOP-ABPP, cell lysates; format: binding; settings: 500 μm, in-vitro_ramos_231
T5 sequence (P24752 34-427): T2 sequence (P24752 34-427)

O00541_C272 = O00541_C272 (Homo sapiens, UniProt O00541); assay: Competitive isoTOP-ABPP, cell lysates; format: binding; settings: 500 μm, in-vitro_ramos_231
MLTK (ZAK) C22 = target: T6, MLTK (ZAK) C22 (Homo sapiens, UniProt Q9NYL2); assay: Blockade of ibrutinib-derived probe 59 labeling of MLTK (gel-based ABPP); format: binding; settings: read-out: IC50 for blockade of ibrutinib probe 59 labeling of MLTK; recombinant MLTK in HEK293T lysate
T6 construct: expressed in transfected cells
Procedure: CuAAC was performed with 20 μM rhodamine-azide (50× stock in DMSO), 1 mM tris(2-carboxyethyl)phosphine hydrochloride (TCEP; fresh 50× stock in water, final concentration=1 mM), ligand (17× stock in DMSO:t-butanol 1:4, final concentration=100 μM) and 1 mM CuSO4 (50× stock in water, final concentration=1 mM). […] Quenched reactions were analyzed by SDS-PAGE and visualized by in-gel fluorescence. […] For MLTK, HEK 293T cells stably overexpressing MTLK^2 were treated with the indicated fragment electrophiles for 1 h, followed by labeling with 59 (1 μl, of 125 μM, final concentration=5 μM) for 1 h. These were followed by CuAAC conjugation to rhodamine-azide and evaluation by SDS-PAGE as described above.

MLTK [1] = target: T7, MLTK (Homo sapiens, UniProt Q9NYL2); assay: MLTK in vitro kinase activity assay; format: biochemical; settings: WT-MLTK, 100 μM fragment
T7 construct: expressed in transfected cells
Procedure: (§4) The kinase activity assay protocol was conducted as described in Wang et al. ACS Chemical biology 9:2194-2198 (2014). Kinase assay buffers, myelin basic protein (MBP) substrate and ATP stock solution were purchased from SignalChem. Radio-labeled [γ-^33P] ATP was purchased from PerkinElmer. 250 μL of HEK-293T soluble lysates (8 mg/mL), stably overexpressing WT, C22A or K45M MLTK were labeled for 1 h with 100 μM fragment or DMSO. The samples were then individually immunoprecipitated with 20 μL flag resin slurry per sample and then eluted with 15 μL 3×Flag-peptide. To each sample was added 5 μL of MBP and then 5 μL of [γ-^33P] ATP assay cocktail (250 μM, 167 μCi/mL) was added to initiate the kinase reaction. Each reaction mixture was incubated at ambient temperature for 30 min, and the reactions were terminated by spotting 25 μL of the reaction mixture onto individual precut phosphocellulose P81 paper. The spotted P81 strips were washed with 10 mL of 1% phosphoric acid (3×10 min). MLTK activity was measured by counting the radioactivity on the P81 paper in the presence of scintillation fluid in a scintillation counter. […] Relative activities for WT and C22A were normalized to their respective DMSO treated samples. Experiments were performed in triplicate.

MLTK [2] = target: T8, MLTK (Homo sapiens, UniProt Q9NYL2, C22A); assay: MLTK in vitro kinase activity assay; format: biochemical; settings: C22A-MLTK, 100 μM fragment
T8 construct: expressed in transfected cells
Procedure: as §4

| isoTOP-ABPP reactivity profile ratio, P63244_C182 (GNB2L1 C182 (P63244)) | isoTOP-ABPP reactivity profile ratio, P09211_C48 (GSTP1 C48 (P09211)) | isoTOP-ABPP reactivity profile ratio, Q9NYL2_C22 (MLTK C22 (Q9NYL2)) | isoTOP-ABPP reactivity profile ratio, Q15084_C55 (PDIA6 C55 (Q15084)) | isoTOP-ABPP reactivity profile ratio, Q99873_C109 (PRMT1 C109 (Q99873)) | isoTOP-ABPP reactivity profile ratio, P68036_C86 (UBE2L3 C86 (P68036)) | isoTOP-ABPP reactivity profile ratio, O14980_C34 (XPO1 C34 (O14980)) | isoTOP-ABPP reactivity profile ratio, P24752_C119 (ACAT1 C119 (P24752)) | isoTOP-ABPP reactivity profile ratio, P24752_C196 (ACAT1 C196 (P24752)) | isoTOP-ABPP reactivity profile ratio, P24752_C413 (ACAT1 C413 (P24752)) | isoTOP-ABPP reactivity profile ratio, P24752_C126 (ACAT1 C126 (P24752)) | isoTOP-ABPP reactivity profile ratio, O00541_C272 (O00541_C272) | IC50 (MLTK (ZAK) C22) | catalytic activity of MLTK (substrate phosphorylation) (MLTK [1]) | inhibitory effect on C22A-MLTK mutant (MLTK [2]) | Compound |
| --- | --- | --- | --- | --- | --- | --- | --- | --- | --- | --- | --- | --- | --- | --- | --- |
| 1.0 | 1.4 | 1.2 | 0.9 | 1.0 | 1.0 | 0.9 | 0.9 | 1.0 | 1.0 | 0.9 | 1.0 | – | – | – | CCCN(C(=O)CCl)c1c(N)n(CCC)c(=O)[nH]c1=O [compound 55] |
| – | – | – | – | – | – | – | – | – | – | – | – | 2.6 µM | blocked the catalytic activity | not observed | O=C(CCl)N1N=C(c2ccco2)CC1c1cc2ccccc2o1 (stereo not drawn) [compound 60] |
